Assay results: US10376520B2, “Methods for the treatment of cardiovascular disorders” (Galapagos NV, priority 2015, dated 2019)

Test system: RA patients
Experiment: LDL determination, Study 1 (RA patients, add-on to MTX)
Format: in vivo, human
Experimental: Double-blind, placebo-controlled add on study in subjects with moderately to severely active RA who have an inadequate response to methotrexate (MTX) (oral or parenteral).
595 subjects randomized to one of 6 dose regimens of Compound 1 (dosed as a [Compound 1:HCl:3H2O]) (3 dose levels administered either once or twice daily) or placebo on top of each subject's stable dose of MTX.
Compound 1 (dosed as a [Compound 1:HCl:3H2O]) is dosed for twelve weeks once daily (q.d.) (50 mg, 100 mg or 200 mg) or twice daily (b.i.d.) (25 mg, 50 mg or 100 mg); or placebo.
At Week 12, the subjects on placebo who have not achieved 20% improvement in swollen joint count (SJC66) and tender joint count (TJC68) are re-randomized automatically to receive Compound 1 (dosed as a [Compound 1:HCl:3H2O]) either at 100 mg q.d. or 50 mg b.i.d. doses in a blinded fashion; subjects on 50 mg q.d. who have not achieved 20% improvement in SJC66 and TJC68 will be assigned to 100 mg q.d. and subjects on 25 mg b.i.d. that have not achieved a 20% improvement in SJC66 and TJC68 will be assigned to 50 mg b.i.d. Subjects who switch treatment at week 12 are handled as if they discontinued at week 12 for the purpose of statistical analysis, whereas subjects in the other groups will maintain their randomized treatment until Week 24.
The determination of [LDL]-cholesterol is made using an automated method taking advantage of the selective micellary solubilization of [LDL]-cholesterol by a nonionic detergent and the interaction of a sugar compound and lipoproteins (VLDL and chylomicrons).
When a detergent is included in the enzymatic method for cholesterol determination (cholesterol esterase, cholesterol oxidase coupling reaction), the relative reactivities of cholesterol in the lipoprotein fractions increase in this order: [HDL]<chylomicrons <VLDL <[LDL]. In the presence of Mg^2+, a sugar compound markedly reduces the enzymatic reaction of the cholesterol measurement in VLDL and chylomicrons. The combination of a sugar compound with detergent enables the selective determination of [LDL]-cholesterol in serum. (Friedewald et al., 1972; Rifai et al., 1992)
Homogeneous enzymatic colorimetric assay.
In the presence of peroxidase, the hydrogen peroxide generated reacts with 4-aminoantipyrine and Sodium N-(2-hydroxy-3-sulfopropyl)-3,5-dimethoxyaniline (HSDA) to form a purple-blue dye.
The color intensity of this dye is directly proportional to the cholesterol concentration and is measured photometrically.
Human serum and plasma samples [LDL] determination was done on a Roche/Hitachi Cobas c 701/702 system which automatically calculate the analyte concentration of each sample. Samples containing precipitates are centrifuged before performing the assay.

[1] = Study 1 12 weeks results, 200 mg q.d., week 2
[2] = Study 1 12 weeks results, 200 mg q.d., week 4
[3] = Study 1 12 weeks results, 200 mg q.d., week 8
[4] = Study 1 12 weeks results, 200 mg q.d., week 12
[5] = Study 1 12 weeks results, 2 x 25 mg b.i.d., week 1
[6] = Study 1 12 weeks results, 2 x 25 mg b.i.d., week 2
[7] = Study 1 12 weeks results, 2 x 25 mg b.i.d., week 4
[8] = Study 1 12 weeks results, 2 x 25 mg b.i.d., week 8
[9] = Study 1 12 weeks results, 2 x 25 mg b.i.d., week 12
[10] = Study 1 12 weeks results, 2 x 50 mg b.i.d., week 1
[11] = Study 1 12 weeks results, 2 x 50 mg b.i.d., week 2
[12] = Study 1 12 weeks results, 2 x 50 mg b.i.d., week 4
[13] = Study 1 12 weeks results, 2 x 50 mg b.i.d., week 8
[14] = Study 1 12 weeks results, 2 x 50 mg b.i.d., week 12
[15] = Study 1 12 weeks results, 2 x 100 mg b.i.d., week 1
[16] = Study 1 12 weeks results, 2 x 100 mg b.i.d., week 2
[17] = Study 1 12 weeks results, 2 x 100 mg b.i.d., week 4
[18] = Study 1 12 weeks results, 2 x 100 mg b.i.d., week 8
[19] = Study 1 12 weeks results, 2 x 100 mg b.i.d., week 12
[20] = Study 1 24 weeks results, continued 50 mg q.d., week 1
[21] = Study 1 24 weeks results, continued 50 mg q.d., week 2
[22] = Study 1 24 weeks results, continued 50 mg q.d., week 4
[23] = Study 1 24 weeks results, continued 50 mg q.d., week 8
[24] = Study 1 24 weeks results, continued 50 mg q.d., week 12
[25] = Study 1 24 weeks results, continued 50 mg q.d., week 16
[26] = Study 1 24 weeks results, continued 50 mg q.d., week 20
[27] = Study 1 24 weeks results, continued 50 mg q.d., week 24
[28] = Study 1 24 weeks results, continued 100 mg q.d., week 1
[29] = Study 1 24 weeks results, continued 100 mg q.d., week 2
[30] = Study 1 24 weeks results, continued 100 mg q.d., week 4
[31] = Study 1 24 weeks results, continued 100 mg q.d., week 8
[32] = Study 1 24 weeks results, continued 100 mg q.d., week 12
[33] = Study 1 24 weeks results, continued 100 mg q.d., week 16
[34] = Study 1 24 weeks results, continued 100 mg q.d., week 20
[35] = Study 1 24 weeks results, continued 100 mg q.d., week 24
[36] = Study 1 24 weeks results, continued 200 mg q.d., week 24
[37] = Study 1 24 weeks results, placebo switched to 50 mg b.i.d at week 12, week 16
[38] = Study 1 24 weeks results, placebo switched to 50 mg b.i.d at week 12, week 20
[39] = Study 1 24 weeks results, placebo switched to 50 mg b.i.d at week 12, week 24

O=C(Nc1nc2cccc(-c3ccc(CN4CCS(=O)(=O)CC4)cc3)n2n1)C1CC1 [Compound 1, cyclopropanecarboxylic acid {5-[4-(1,1-dioxo-thiomorpholin-4-ylmethyl)-phenyl]-[1,2,4]triazolo[1,5-a]pyridin-2yl}-amide]
[LDL] Mean CFB [1]: 0.11 mmol/L
[LDL] Median CFB [1]: 0.13 mmol/L
[LDL] Mean CFB [2]: 0.13 mmol/L
[LDL] Median CFB [2]: 0.09 mmol/L
[LDL] Mean CFB [3]: 0.16 mmol/L
[LDL] Median CFB [3]: 0.18 mmol/L
[LDL] Mean CFB [4]: 0.19 mmol/L
[LDL] Median CFB [4]: 0.14 mmol/L
[LDL] Mean CFB [5]: 0.04 mmol/L
[LDL] Median CFB [5]: 0.05 mmol/L
[LDL] Mean CFB [6]: 0.04 mmol/L
[LDL] Median CFB [6]: 0.09 mmol/L
[LDL] Mean CFB [7]: -0.01 mmol/L
[LDL] Median CFB [7]: -0.01 mmol/L
[LDL] Mean CFB [8]: -0.05 mmol/L
[LDL] Median CFB [8]: 0.01 mmol/L
[LDL] Mean CFB [9]: 0.07 mmol/L
[LDL] Median CFB [9]: 0.05 mmol/L
[LDL] Mean CFB [10]: 0.10 mmol/L
[LDL] Median CFB [10]: 0.17 mmol/L
[LDL] Mean CFB [11]: 0.04 mmol/L
[LDL] Median CFB [11]: 0.1 mmol/L
[LDL] Mean CFB [12]: 0.14 mmol/L
[LDL] Median CFB [12]: 0.05 mmol/L
[LDL] Mean CFB [13]: 0.07 mmol/L
[LDL] Median CFB [13]: 0.10 mmol/L
[LDL] Mean CFB [14]: 0.05 mmol/L
[LDL] Median CFB [14]: 0.02 mmol/L
[LDL] Mean CFB [15]: 0.20 mmol/L
[LDL] Median CFB [15]: 0.18 mmol/L
[LDL] Mean CFB [16]: 0.15 mmol/L
[LDL] Median CFB [16]: 0.08 mmol/L
[LDL] Mean CFB [17]: 0.17 mmol/L
[LDL] Median CFB [17]: 0.12 mmol/L
[LDL] Mean CFB [18]: 0.31 mmol/L
[LDL] Median CFB [18]: 0.22 mmol/L
[LDL] Mean CFB [19]: 0.27 mmol/L
[LDL] Median CFB [19]: 0.26 mmol/L
[LDL] Mean CFB [20]: 0.00 mmol/L
[LDL] Median CFB [20]: -0.01 mmol/L
[LDL] Mean CFB [21]: -0.02 mmol/L
[LDL] Median CFB [21]: 0.02 mmol/L
[LDL] Mean CFB [22]: 0.02 mmol/L
[LDL] Median CFB [22]: -0.01 mmol/L
[LDL] Mean CFB [23]: 0.08 mmol/L
[LDL] Median CFB [23]: 0.13 mmol/L
[LDL] Mean CFB [24]: 0.16 mmol/L
[LDL] Median CFB [24]: 0.14 mmol/L
[LDL] Mean CFB [25]: 0.15 mmol/L
[LDL] Median CFB [25]: 0.12 mmol/L
[LDL] Mean CFB [26]: 0.14 mmol/L
[LDL] Median CFB [26]: 0.20 mmol/L
[LDL] Mean CFB [27]: 0.13 mmol/L
[LDL] Median CFB [27]: 0.14 mmol/L
[LDL] Mean CFB [28]: 0.11 mmol/L
[LDL] Median CFB [28]: 0.10 mmol/L
[LDL] Mean CFB [29]: 0.01 mmol/L
[LDL] Median CFB [29]: 0.02 mmol/L
[LDL] Mean CFB [30]: 0.13 mmol/L
[LDL] Median CFB [30]: 0.13 mmol/L
[LDL] Mean CFB [31]: 0.03 mmol/L
[LDL] Median CFB [31]: 0.04 mmol/L
[LDL] Mean CFB [32]: 0.12 mmol/L
[LDL] Median CFB [32]: 0.13 mmol/L
[LDL] Mean CFB [33]: -0.01 mmol/L
[LDL] Median CFB [33]: 0.03 mmol/L
[LDL] Mean CFB [34]: -0.01 mmol/L
[LDL] Median CFB [34]: 0.02 mmol/L
[LDL] Mean CFB [35]: 0.03 mmol/L
[LDL] Median CFB [35]: 0.03 mmol/L
[LDL] Mean CFB [36]: 0.13 mmol/L
[LDL] Median CFB [36]: 0.17 mmol/L
[LDL] Mean CFB [37]: 0.07 mmol/L
[LDL] Median CFB [37]: 0.16 mmol/L
[LDL] Mean CFB [38]: 0.13 mmol/L
[LDL] Median CFB [38]: 0.06 mmol/L
[LDL] Mean CFB [39]: -0.01 mmol/L
[LDL] Median CFB [39]: 0.22 mmol/L
[LDL] Mean percentage CFB - 24 weeks results (increased from 25 mg b.i.d. to 50 mg b.i.d at 12 weeks, week 1): 2.10%
[LDL] Mean percentage CFB - 24 weeks results (increased from 25 mg b.i.d. to 50 mg b.i.d at 12 weeks, week 2): 4.27%
[LDL] Mean percentage CFB - 24 weeks results (increased from 25 mg b.i.d. to 50 mg b.i.d at 12 weeks, week 4): −3.29%
[LDL] Mean percentage CFB - 24 weeks results (increased from 25 mg b.i.d. to 50 mg b.i.d at 12 weeks, week 8): −5.79%
[LDL] Mean percentage CFB - 24 weeks results (increased from 25 mg b.i.d. to 50 mg b.i.d at 12 weeks, week 12): −0.19%
[LDL] Mean percentage CFB - 24 weeks results (increased from 25 mg b.i.d. to 50 mg b.i.d at 12 weeks, week 16): 3.55%
[LDL] Mean percentage CFB - 24 weeks results (increased from 25 mg b.i.d. to 50 mg b.i.d at 12 weeks, week 20): −8.82%
[LDL] Mean percentage CFB - 24 weeks results (increased from 25 mg b.i.d. to 50 mg b.i.d at 12 weeks, week 24): 2.65%
[LDL] Mean percentage CFB - 24 weeks results (increased from 50 mg q.d. to 100 mg q.d. at 12 weeks, week 1): 0.31%
[LDL] Mean percentage CFB - 24 weeks results (increased from 50 mg q.d. to 100 mg q.d. at 12 weeks, week 2): 4.52%
[LDL] Mean percentage CFB - 24 weeks results (increased from 50 mg q.d. to 100 mg q.d. at 12 weeks, week 4): −1.68%
[LDL] Mean percentage CFB - 24 weeks results (increased from 50 mg q.d. to 100 mg q.d. at 12 weeks, week 8): 1.20%
[LDL] Mean percentage CFB - 24 weeks results (increased from 50 mg q.d. to 100 mg q.d. at 12 weeks, week 12): 2.96%
[LDL] Mean percentage CFB - 24 weeks results (increased from 50 mg q.d. to 100 mg q.d. at 12 weeks, week 16): 4.69%
[LDL] Mean percentage CFB - 24 weeks results (increased from 50 mg q.d. to 100 mg q.d. at 12 weeks, week 20): 3.51%
[LDL] Mean percentage CFB - 24 weeks results (increased from 50 mg q.d. to 100 mg q.d. at 12 weeks, week 24): 4.92%
[LDL] Mean percentage CFB - 24 weeks results (placebo switched to 50 mg b.i.d at week 12, week 16): 4.13%
[LDL] Mean percentage CFB - 24 weeks results (placebo switched to 50 mg b.i.d at week 12, week 20): 6.69%
[LDL] Mean percentage CFB - 24 weeks results (placebo switched to 50 mg b.i.d at week 12, week 24): 2.68%
[LDL] Mean percentage CFB - 24 weeks results (placebo switched to 100 mg q.d. at week 12, week 16): −2.85%
[LDL] Mean percentage CFB - 24 weeks results (placebo switched to 100 mg q.d. at week 12, week 20): −1.07%
[LDL] Mean percentage CFB - 24 weeks results (placebo switched to 100 mg q.d. at week 12, week 24): −8.19%
